Reference: patent US8906904B2, “Alkoxy pyrazoles as soluble guanylate cyclase activators” (Boehringer Ingelheim International GmbH, priority 2012, dated 2014)
pEC50: −log10 of the molar value. Values after ≈ are worked out from the molar mass of the structure shown.

Legend:
[1] = molecular target: T1, human soluble guanylate cyclase alpha 1 and beta 1 subunits (sGC) (Homo sapiens, UniProt Q02108+Q02153); experiment: sGC cellular activator assay (cGMP, HTRF); format: cell-based; details: CHO cells stably expressing human sGC alpha 1/beta 1, preincubated with 40 microM ODQ; cGMP readout; assay run with and without 50% human serum, Table 2 does not say which
T1 construct: expressed in transfected cells; host or cells: Chinese hamster ovary (CHO) cells, stably transfected
T1 sequence (Q02108 1-690): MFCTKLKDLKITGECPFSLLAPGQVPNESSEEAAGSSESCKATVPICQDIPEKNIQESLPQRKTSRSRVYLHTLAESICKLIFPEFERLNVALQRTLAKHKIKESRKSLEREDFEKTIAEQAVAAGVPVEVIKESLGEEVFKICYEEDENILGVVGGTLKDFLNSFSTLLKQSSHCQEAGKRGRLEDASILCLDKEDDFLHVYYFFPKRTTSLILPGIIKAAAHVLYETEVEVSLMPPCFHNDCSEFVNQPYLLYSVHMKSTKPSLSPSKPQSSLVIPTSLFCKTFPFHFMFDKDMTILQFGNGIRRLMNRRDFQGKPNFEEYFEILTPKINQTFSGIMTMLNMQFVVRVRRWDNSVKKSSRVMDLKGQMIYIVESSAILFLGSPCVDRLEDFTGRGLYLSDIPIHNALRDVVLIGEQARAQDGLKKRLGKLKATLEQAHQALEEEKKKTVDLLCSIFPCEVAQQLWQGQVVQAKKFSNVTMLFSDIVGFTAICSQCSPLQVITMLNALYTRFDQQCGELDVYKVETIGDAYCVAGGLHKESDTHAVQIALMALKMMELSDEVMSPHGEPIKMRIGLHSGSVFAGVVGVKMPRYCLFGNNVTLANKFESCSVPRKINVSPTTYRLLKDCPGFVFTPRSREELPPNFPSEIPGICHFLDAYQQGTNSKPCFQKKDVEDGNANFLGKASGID
T1 sequence (Q02153 1-619): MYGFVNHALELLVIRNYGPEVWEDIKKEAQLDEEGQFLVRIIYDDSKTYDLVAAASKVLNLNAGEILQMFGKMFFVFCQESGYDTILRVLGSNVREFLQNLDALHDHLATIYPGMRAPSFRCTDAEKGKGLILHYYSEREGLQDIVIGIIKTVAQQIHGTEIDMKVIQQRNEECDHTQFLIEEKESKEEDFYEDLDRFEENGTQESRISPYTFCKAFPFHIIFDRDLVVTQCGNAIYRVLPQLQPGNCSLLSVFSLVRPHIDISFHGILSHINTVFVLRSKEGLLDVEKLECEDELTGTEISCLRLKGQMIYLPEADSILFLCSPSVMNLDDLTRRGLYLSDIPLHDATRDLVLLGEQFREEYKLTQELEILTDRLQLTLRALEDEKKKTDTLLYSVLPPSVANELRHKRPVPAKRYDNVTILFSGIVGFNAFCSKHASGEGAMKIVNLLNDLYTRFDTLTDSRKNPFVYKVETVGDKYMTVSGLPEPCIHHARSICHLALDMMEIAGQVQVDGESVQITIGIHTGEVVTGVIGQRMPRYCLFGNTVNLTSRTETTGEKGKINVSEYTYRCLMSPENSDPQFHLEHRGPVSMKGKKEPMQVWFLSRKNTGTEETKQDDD
How it was run: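 First, CHO-sGC (human α1β1) cells get 1 h ODQ at 40 microM with IBMX and 0.1% BSA. Finally, cGMP is quantified by HTRF and EC50 computed.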

[2] = Assessment of solubility (McIlvaine buffers, 24 h shake, UPLC-UV); format: physicochemical; details: kinetic from dmso stock
How it was run: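 Compounds from 10 mM DMSO stocks were shaken for 24 h at room temperature in McIlvaine buffers at pH 2.2, 4.5 and 6.8 (2.5% v/v DMSO final), then filtered. Filtrates were quantified by UPLC-UV at 254 nm against a 50:50 acetonitrile/water reference assumed fully dissolved, as a single determination.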

| SMILES | pEC50 [1] | solubility at 24 h ([2]; pH 2.2, aqueous buffer) [µg/mL] | solubility at 24 h ([2]; pH 4.5, aqueous buffer) [µg/mL] | solubility at 24 h ([2]; pH 6.8, aqueous buffer) [µg/mL] |
| --- | --- | --- | --- | --- |
| COc1c(C(=O)O)cnn1-c1cccc(-c2cccc(C)c2OCc2ccc3c(c2F)CCN(C[C@H]2COCCO2)C3)n1 [Compound 234] | 7.89 | 120 (≈ 204 µM) | 97 (≈ 165 µM) | 91 (≈ 155 µM) |
| CCOc1c(C(=O)O)cnn1-c1cccc(-c2cccc(C)c2OCc2ccc3c(c2C)CCN(C[C@@H]2CCCO2)CC3)n1 [Compound 235] | 7.70 | 100 (≈ 168 µM) | 83 (≈ 139 µM) | 88 (≈ 147 µM) |
| CCOc1c(C(=O)O)cnn1-c1cccc(-c2cccc(C)c2OCc2ccc3c(c2C)CCN(C[C@@H]2CCCCO2)C3)n1 [Compound 236] | 7.55 | 110 (≈ 184 µM) | 96 (≈ 161 µM) | 83 (≈ 139 µM) |
| COc1c(C(=O)O)cnn1-c1cccc(-c2cccc(C)c2OCc2cc(C)c3c(c2)CCN(C2CCCOC2)C3)n1 (centres unmarked) [Compound 237] | 8.31 | 94 (≈ 165 µM) | 55 (≈ 96.7 µM) | 52 (≈ 91.4 µM) |
| COc1c(C(=O)O)cnn1-c1cccc(-c2cccc(C)c2OCc2ccc3c(c2C)CCN(C2CCCOC2)C3)n1 (centres unmarked) [Compound 238] | 8.29 | 77 (≈ 135 µM) | 55 (≈ 96.7 µM) | 52 (≈ 91.4 µM) |
| COc1c(C(=O)O)cnn1-c1cccc(-c2cccc(C)c2OCc2cc(C)c3c(c2)CCN(CC2(C)COC2)C3)n1 [Compound 239] | 8.19 | 91 (≈ 160 µM) | 71 (≈ 125 µM) | 72 (≈ 127 µM) |
| COc1c(C(=O)O)cnn1-c1cccc(-c2cccc(C)c2OCc2cc(C)c3c(c2)CCN(CC2COCCO2)C3)n1 (centres unmarked) [Compound 240] | 8.10 | 92 (≈ 157 µM) | 69 (≈ 118 µM) | 67 (≈ 115 µM) |
| CCOc1c(C(=O)O)cnn1-c1cccc(-c2cccc(C)c2OCc2cc(C)c3c(c2)CCN(C2CCOC2)C3)n1 (centres unmarked) [Compound 241] | 8.10 | 100 (≈ 176 µM) | 81 (≈ 142 µM) | 84 (≈ 148 µM) |
| COc1c(C(=O)O)cnn1-c1cccc(-c2cccc(C)c2OCc2cc(C)c3c(c2)CCN(C2CCOC2)C3)n1 (centres unmarked) [Compound 242] | 7.96 | 110 (≈ 198 µM) | 79 (≈ 142 µM) | 78 (≈ 141 µM) |
| CCOc1c(C(=O)O)cnn1-c1cccc(-c2cccc(C)c2OCc2cc(C)c3c(c2)CCN(CC2COCCO2)C3)n1 (centres unmarked) [Compound 243] | 7.80 | 100 (≈ 167 µM) | 82 (≈ 137 µM) | 81 (≈ 135 µM) |
| COCC(C)N1CCc2cc(COc3c(C)cccc3-c3cccc(-n4ncc(C(=O)O)c4OC)n3)cc(C)c2C1 (centres unmarked) [Compound 244] | 7.64 | 120 (≈ 216 µM) | 99 (≈ 178 µM) | 98 (≈ 176 µM) |
| CCOc1c(C(=O)O)cnn1-c1cccc(-c2cccc(C)c2OCc2ccc3c(c2)CCCN(C2CCCOC2)C3)n1 (centres unmarked) [Compound 245] | 6.55 | 100 (≈ 172 µM) | 79 (≈ 136 µM) | 92 (≈ 158 µM) |
| COc1c(C(=O)O)cnn1-c1cccc(-c2cccc(C)c2OCc2ccc3c(c2)CN(CC2COCCO2)C3)n1 (centres unmarked) [Compound 247] | 8.07 | 90 (≈ 162 µM) | 75 (≈ 135 µM) | 71 (≈ 128 µM) |
| CCc1cc(COc2c(C)cccc2-c2cccc(-n3ncc(C(=O)O)c3OC)n2)cc2c1CN(C1CCOCC1)CC2 [Compound 248] | 8.38 | 94 (≈ 161 µM) | 75 (≈ 129 µM) | 74 (≈ 127 µM) |
| CCc1cc(COc2c(C)cccc2-c2cccc(-n3ncc(C(=O)O)c3OC)n2)cc2c1CN(C1COC1)CC2 [Compound 249] | 8.34 | 94 (≈ 169 µM) | 67 (≈ 121 µM) | 93 (≈ 168 µM) |
| COc1c(C(=O)O)cnn1-c1cccc(-c2cccc(C)c2OCc2cc(C#N)c3c(c2)CCN(C2CCOCC2)C3)n1 [Compound 250] | 7.36 | 110 (≈ 190 µM) | 81 (≈ 140 µM) | 86 (≈ 148 µM) |
| COc1c(C(=O)O)cnn1-c1cccc(-c2cccc(C)c2OCc2ccc3c(c2F)CCN([C@H]2CCOC2)C3)n1 [Compound 251] | 8.15 | 100 (≈ 179 µM) | 72 (≈ 129 µM) | 77 (≈ 138 µM) |
| COc1c(C(=O)O)cnn1-c1cccc(-c2cccc(C)c2OCc2ccc3c(c2F)CCN([C@@H]2CCOC2)C3)n1 [Compound 252] | 8.00 | 94 (≈ 168 µM) | 73 (≈ 131 µM) | 62 (≈ 111 µM) |
| COc1c(C(=O)O)cnn1-c1cccc(-c2cccc(C)c2OCc2cc(F)c3c(c2)CCN([C@@H]2CCOC2)C3)n1 [Compound 253] | 7.89 | 100 (≈ 179 µM) | 75 (≈ 134 µM) | 81 (≈ 145 µM) |
| COc1c(C(=O)O)cnn1-c1cccc(-c2cccc(C)c2OCc2cc(F)c3c(c2)CCN([C@H]2CCOC2)C3)n1 [Compound 254] | 7.60 | 100 (≈ 179 µM) | 64 (≈ 115 µM) | 80 (≈ 143 µM) |
